In ChEMBL document CHEMBL3885861, “Open TG-GATES”:

Species on record: Rattus norvegicus
Test: Open TG-GATES - Regimen: Single
Assay type: toxicity, organism-based, Sprague-Dawley
Parameters: regimen Single, gender Male, age 6 weeks
Details: in vivo, po, 3 mg/kg, route gavage, dose level Low; for APTT / Bas / Eos / Fbg / Hb / Ht / Lym / MCH / MCHC / MCV / Mono / Neu / PT / Plat / RBC / Ret / WBC: tissue Blood; for KIDNEY_L / KIDNEY_R / KIDNEY_TOTAL: tissue Kidney; for LIVER: tissue Liver; for A/G / ALP / ALT / AST / BUN / CRE / Ca / Cl / DBIL / GLC / IP / K / LDH / Na / PL / RALB / TBIL / TC / TG / TP / gamma-GTP: tissue Plasma

SMILES: C[C@H]1C(=O)O[C@@H]2CCN3CC=C(COC(=O)[C@](C)(O)[C@]1(C)O)[C@H]23 [MONOCROTALINE]
- TERMINAL_BW (3 h): 207 g
- APTT (3 h): 21.1 s
- Bas (3 h): 0%
- Eos (3 h): 0.8%
- Fbg (3 h): 296.8 mg/dL
- Hb (3 h): 13.5 g/dL
- Ht (3 h): 39.3%
- Lym (3 h): 80.4%
- MCH (3 h): 21.9 pg
- MCHC (3 h): 34.3%
- MCV (3 h): 63.9 fL
- Mono (3 h): 2.6%
- Neu (3 h): 16.6%
- PT (3 h): 16.6 s
- Plat (3 h): 121 x10_4/uL
- RBC (3 h): 615.6 x10_4/ul
- Ret (3 h): 8.9%
- WBC (3 h): 70.3 x10_2/uL
- KIDNEY_L (3 h): 0.9 g
- KIDNEY_R (3 h): 0.9 g
- KIDNEY_TOTAL (3 h): 1.8 g
- LIVER (3 h): 9.6 g
- A/G (3 h): 1.4
- ALP (3 h): 1405.4 IU/L
- ALT (3 h): 40.4 IU/L
- AST (3 h): 70.6 IU/L
- BUN (3 h): 14.4 mg/dL
- CRE (3 h): 0.1 mg/dL
- Ca (3 h): 10.6 mg/dL
- Cl (3 h): 106.4 meq/L
- DBIL (3 h): 0.002 mg/dL
- GLC (3 h): 176.6 mg/dL
- IP (3 h): 8.6 mg/dL
- K (3 h): 4.2 meq/L
- LDH (3 h): 232.4 IU/L
- Na (3 h): 142.8 meq/L
- PL (3 h): 141 mg/dL
- RALB (3 h): 3.1 g/dL
- TBIL (3 h): 0.014 mg/dL
- TC (3 h): 79.4 mg/dL
- TG (3 h): 73.8 mg/dL
- TP (3 h): 5.4 g/dL
- gamma-GTP (3 h): 1 IU/L
- TERMINAL_BW (6 h): 213.3 g
- APTT (6 h): 20.6 s
- Bas (6 h): 0%
- Eos (6 h): 0.8%
- Fbg (6 h): 314 mg/dL
- Hb (6 h): 13.4 g/dL
- Ht (6 h): 39.7%
- Lym (6 h): 77.6%
- MCH (6 h): 21.3 pg
- MCHC (6 h): 33.9%
- MCV (6 h): 62.8 fL
- Mono (6 h): 2.4%
- Neu (6 h): 17.8%
- PT (6 h): 16.2 s
- Plat (6 h): 124.3 x10_4/uL
- RBC (6 h): 632.2 x10_4/ul
- Ret (6 h): 9.3%
- WBC (6 h): 86.8 x10_2/uL
- KIDNEY_L (6 h): 0.9 g
- KIDNEY_R (6 h): 0.9 g
- KIDNEY_TOTAL (6 h): 1.9 g
- LIVER (6 h): 9.9 g
- A/G (6 h): 1.3
- ALP (6 h): 1354.2 IU/L
- ALT (6 h): 40 IU/L
- AST (6 h): 67.2 IU/L
- BUN (6 h): 12.2 mg/dL
- CRE (6 h): 0.1 mg/dL
- Ca (6 h): 10.7 mg/dL
- Cl (6 h): 106 meq/L
- DBIL (6 h): 0.004 mg/dL
- GLC (6 h): 175.2 mg/dL
- IP (6 h): 9.3 mg/dL
- K (6 h): 4.5 meq/L
- LDH (6 h): 200 IU/L
- Na (6 h): 141.8 meq/L
- PL (6 h): 139.8 mg/dL
- RALB (6 h): 3.1 g/dL
- TBIL (6 h): 0.01 mg/dL
- TC (6 h): 78 mg/dL
- TG (6 h): 86.2 mg/dL
- TP (6 h): 5.4 g/dL
- gamma-GTP (6 h): 1.2 IU/L
- TERMINAL_BW (9 h): 205.5 g
- APTT (9 h): 21 s
- Bas (9 h): 0%
- Eos (9 h): 0.6%
- Fbg (9 h): 291 mg/dL
- Hb (9 h): 13.3 g/dL
- Ht (9 h): 38.9%
- Lym (9 h): 79.8%
- MCH (9 h): 20.7 pg
- MCHC (9 h): 34.2%
- MCV (9 h): 60.6 fL
- Mono (9 h): 2.2%
- Neu (9 h): 16.2%
- PT (9 h): 16.4 s
- Plat (9 h): 126 x10_4/uL
- RBC (9 h): 642.2 x10_4/ul
- Ret (9 h): 8.7%
- WBC (9 h): 73.2 x10_2/uL
- KIDNEY_L (9 h): 0.9 g
- KIDNEY_R (9 h): 1 g
- KIDNEY_TOTAL (9 h): 1.9 g
- LIVER (9 h): 8.8 g
- A/G (9 h): 1.3
- ALP (9 h): 1565.2 IU/L
- ALT (9 h): 35.6 IU/L
- AST (9 h): 67 IU/L
- BUN (9 h): 12.4 mg/dL
- CRE (9 h): 0.1 mg/dL
- Ca (9 h): 10.5 mg/dL
- Cl (9 h): 106 meq/L
- DBIL (9 h): 0.006 mg/dL
- GLC (9 h): 184.4 mg/dL
- IP (9 h): 9.5 mg/dL
- K (9 h): 4 meq/L
- LDH (9 h): 197 IU/L
- Na (9 h): 142.2 meq/L
- PL (9 h): 130.6 mg/dL
- RALB (9 h): 3.1 g/dL
- TBIL (9 h): 0.02 mg/dL
- TC (9 h): 72.2 mg/dL
- TG (9 h): 48.6 mg/dL
- TP (9 h): 5.4 g/dL
- gamma-GTP (9 h): 1 IU/L
- TERMINAL_BW (24 h): 217.7 g
- APTT (24 h): 20.9 s
- Bas (24 h): 0%
- Eos (24 h): 1%
- Fbg (24 h): 305 mg/dL
- Hb (24 h): 13.2 g/dL
- Ht (24 h): 38.8%
- Lym (24 h): 80.6%
- MCH (24 h): 20.5 pg
- MCHC (24 h): 34.1%
- MCV (24 h): 60.3 fL
- Mono (24 h): 2.6%
- Neu (24 h): 15%
- PT (24 h): 16.2 s
- Plat (24 h): 117.2 x10_4/uL
- RBC (24 h): 645.2 x10_4/ul
- Ret (24 h): 7.7%
- WBC (24 h): 97.3 x10_2/uL
- KIDNEY_L (24 h): 1 g
- KIDNEY_R (24 h): 1 g
- KIDNEY_TOTAL (24 h): 2 g
- LIVER (24 h): 10.4 g
- A/G (24 h): 1.3
- ALP (24 h): 1841.2 IU/L
- ALT (24 h): 43.6 IU/L
- AST (24 h): 70.2 IU/L
- BUN (24 h): 16.4 mg/dL
- CRE (24 h): 0.1 mg/dL
- Ca (24 h): 10.8 mg/dL
- Cl (24 h): 106.4 meq/L
- DBIL (24 h): 0.006 mg/dL
- GLC (24 h): 178 mg/dL
- IP (24 h): 7.6 mg/dL
- K (24 h): 4.2 meq/L
- LDH (24 h): 220.2 IU/L
- Na (24 h): 142.2 meq/L
- PL (24 h): 160.2 mg/dL
- RALB (24 h): 3.2 g/dL
- TBIL (24 h): 0.006 mg/dL
- TC (24 h): 81.2 mg/dL
- TG (24 h): 102.8 mg/dL
- TP (24 h): 5.6 g/dL
- gamma-GTP (24 h): 1 IU/L
